For two compounds, solubility and time to dissolve results are on record in US7649089B2, “Biodegradable oxidized cellulose esters and their uses as microspheres” (University of Iowa Research Foundation, priority 2001, dated 2010).

The nature of series [1]: Solubility of 5-fluorouracil in pH 7.4 phosphate buffer saline. It is filed as physicochemical. The note with it: aqueous buffer, pH 7.4 PBS, read-out: solubility in pH 7.4 phosphate buffer saline solution.
A short description of series [2]: Release studies of CPT microspheres in pH 7.4 PBS at 37 C, sink condition. The note with it: free drug. In kind it is physicochemical. The protocol:
OCA was prepared from oxidized (OC, COOH content 14% w/w) by treatment with a mixture of Ac2O/HOAC/H2SO4. The preparation of OCAM was achieved from a reaction between OCA and methanol using dicyclohexylcarbodiimide and 4,4′-dimethylaminopyridine as the catalysts. OCA and OCAM microspheres containing CPT were prepared by the emulsion/solvent evaporation method using the CH2Cl2—CH3OH mixture as a solvent and polyvinyl alcohol as an emulsifier. Microspheres were characterized by IR, scanning electron and confocal microscopes, and powder X-ray diffractometry. Dissolution studies were performed in pH 7.4 phosphate buffer-saline (PBS) at 37° C.
The release studies were performed under the sink condition in pH 7.4 PBS buffer at 37.0±0.2° C. At predetermined time intervals, 5.0 ml of the release medium was withdrawn. This was immediately replaced with an equal volume of the fresh PBS solution. The removed release medium was appropriated diluted with the mobile phase and analyzed by HPLC.

Converted amounts (≈) assume the structure as drawn.

As a reminder, the solubility is how much of the substance goes into solution per volume. On to `O=c1[nH]cc(F)c(=O)[nH]1` [5-fluorouracil], for which, in series [1], the solubility was determined as 14.9 mg/mL (≈ 114 mM).

For the compound `CC[C@@]1(O)C(=O)OCc2c1cc1n(c2=O)Cc2cc3ccccc3nc2-1` [free CPT, camptothecin], the time to dissolve result in series [2] is recorded as “about 48 hours”.
